# Values quoted from earlier work as cited in US20230082651A1, “STABLE AQUEOUS COMPOSITIONS OF PLANTS EXTRACTS AND METHODS OF MAKING THE SAME” (Nulixir Inc., priority 2021, published 2023).
# Conditions: water and n-octanol; categorization at pH=7 unless stated otherwise
row,Molecule,log P
1,"COC1=CC(=O)OC(/C=C/c2ccc(OC)cc2)C1 (stereo not drawn) [5,6-dihydroyangonin]",~2.5
2,CC1=C(CO)C(=O)O[C@@H]([C@@H](C)[C@H]2CC[C@H]3[C@@H]4C[C@H](Cl)[C@]5(O)[C@@H](O)C=CC(=O)[C@]5(C)[C@H]4CC[C@]23C)C1 [6a-chloro-5b-hydroxywithaferin A],~3.2
3,"COC1=CC(=O)O[C@@H](CCc2ccc3c(c2)OCO3)C1 [7,8-dihydromethysticin]",~2.2
4,"COc1ccc(CCc2cc(OC)cc(=O)o2)cc1 [7,8-dihydroyangonin]",~2.9
5,COc1cc(/C=C\c2ccc(OC)c(O)c2)oc(=O)c1 [11-hydroxyyangonin],~2.2
6,COc1cc2c(c(OC)c1OC)-c1c(cc(OC)c(OC)c1OC)C[C@](C)(O)[C@@H](C)C2 [(+)-schisandrin],~5
7,COc1cc2c(c(OC)c1OC)-c1c(cc(OC)c(OC)c1OC)C[C@H](C)[C@H](C)C2 [(−)-schisandrin A],~3.6
8,COc1c2c(cc3c1-c1c(cc4c(c1OC)OCO4)C[C@H](C)[C@H](C)C3)OCO2 [(−)-schisandrin C],~3.5
9,CC(C)=C[C@@H]1CO[C@]23C[C@]4(CO2)[C@H](CC[C@@H]2[C@@]5(C)CC[C@H](O[C@@H]6OC[C@H](O)[C@H](O[C@@H]7O[C@H](CO)[C@@H](O)[C@H](O)[C@H]7O)[C@H]6O[C@@H]6O[C@@H](CO)[C@H](O)[C@H]6O)C(C)(C)[C@@H]5CC[C@]24C)[C@H]3[C@@]1(C)O [bacopasaponin C],~2
10,CC(C)=C[C@H]1C[C@](C)(O)[C@@H]2[C@H]3CC[C@@H]4[C@@]5(C)CC[C@H](O[C@@H]6OC[C@H](O)[C@H](O[C@@H]7O[C@H](CO)[C@@H](O)[C@H](O)[C@H]7O)[C@H]6O[C@@H]6O[C@@H](CO)[C@H](O)[C@H]6O)C(C)(C)[C@@H]5CC[C@@]4(C)[C@@]34CO[C@@]2(C4)O1 [bacopaside X],~2.2
11,CC(C)=C[C@H]1C[C@](C)(O)[C@H]2[C@H]3CC[C@@H]4[C@@]5(C)CC[C@H](O[C@@H]6O[C@H](CO)[C@@H](O)[C@H](O[C@@H]7O[C@H](CO)[C@@H](O)[C@H](O)[C@H]7O)[C@H]6O[C@@H]6O[C@@H](CO)[C@H](O)[C@H]6O)C(C)(C)[C@@H]5CC[C@@]4(C)[C@@]34CO[C@@]2(C4)O1 [bacoside A3],~2.1
12,CC(C)=CCC[C@](C)(O[C@@H]1O[C@H](CO[C@@H]2O[C@H](CO)[C@@H](O)[C@H](O)[C@H]2O)[C@@H](O)[C@H](O)[C@H]1O)[C@H]1CC[C@]2(C)[C@@H]1[C@H](O)C[C@@H]1[C@@]3(C)CC[C@H](O[C@@H]4O[C@H](CO)[C@@H](O)[C@H](O)[C@H]4O[C@@H]4O[C@H](CO)[C@@H](O)[C@H](O)[C@H]4O)C(C)(C)[C@@H]3CC[C@]12C [ginsenoside rb1],~−1
13,CC(C)=CCC[C@](C)(O[C@@H]1O[C@H](CO)[C@@H](O)[C@H](O)[C@H]1O)[C@H]1CC[C@]2(C)[C@@H]1[C@H](O)C[C@@H]1[C@@]3(C)CC[C@H](O)C(C)(C)[C@@H]3[C@@H](O[C@@H]3O[C@H](CO)[C@@H](O)[C@H](O)[C@H]3O)C[C@]12C [ginsenoside rgl],~0.8
14,COc1ccc(C23C=CC(O)CC2N(C)CC3)cc1OC (stereo not drawn) [mesembrenol],~2.4
15,COc1ccc([C@@]23C=CC(=O)C[C@@H]2N(C)CC3)cc1OC [mesembrenone],~1.3
16,COc1ccc([C@@]23CCC(=O)C[C@@H]2N(C)CC3)cc1OC [mesembrine],~1.5
17,COc1nc2c(c(=O)n1C)n(C)c(=O)n2C [methylliberine],~−0.083
18,CC(=O)OC1C=CC(=O)N(C(=O)CCc2ccccc2)C1 (stereo not drawn) [pipermethystine],~1.8
19,COc1cc([C@H]2Oc3cc(O)c4c(=O)c(O)c(-c5ccc(O)cc5)oc4c3O[C@@H]2CO)ccc1O [rhodiolin],~2
20,N#C[C@@]1(O[C@@H]2O[C@H](CO)[C@@H](O)[C@H](O)[C@H]2O)C=C[C@@H](O)C1 [tetraphyllin B],~−2.5
21,(R)-kawain,~2.7
22,bacopaside B,~2.8
23,hericerin,~6.4
24,herinacine A,~2.5
25,schisandroside C,~1.6
26,tortuosomine,~3

# Conditions: as a function of water content
row,Molecule,solubility in ethanol
1,COc1ccc2cc3[n+](cc2c1OC)CCc1cc2c(cc1-3)OCO2 [berberine],decreases rapidly with water content
